A short description of one data set: plasma stability. Particulars: rat plasma; for Plasma stability, remaining of the intact test compound: 37° C. It is filed as in vitro ADME. The method, then:
Briefly, each tube is added 882 μL of 1:1 diluted rat plasma with phosphate buffer (pH 7.4). 18 μL (100 μM) of DMSO stock solution of the test compound (4, 13 and 15) or positive control compound (Diltiazem) was added to make a final compound concentration 2 μM in the plasma solution and final DMSO content 2%. The mixture was incubated at 37° C. After the incubation at 0, 15, 30, 60, and 120 min time points, aliquots of 50 μL samples were quenched with 100 μL of ice-cold acetonitrile with 25 μM of the internal reference (for HPLC analysis), respectively. The quenched samples were centrifuged at 10,000×g, and the supernatant was analyzed by HPLC. The percentage of remaining intact test compound was calculated by (peak area at the specific time point)/(peak area at 0 min)×100. Every sample was assayed three times.

The nature of data set [1]: plasma protein binding, ultrafiltration assay using [18F]15. It is filed as in vitro ADME. Particulars: human plasma. The method, then:
Plasma Protein Binding Assay. An aliquot of radiolabeled compound [^18F]15 in saline (10 μL, 74 kBq) was added to a sample of human plasma (0.5 mL). The mixture was gently mixed by repeated inversion and incubated for 10 min at room temperature. Following incubation, a small sample (10 μL) was removed to determine the total radioactivity in the plasma sample (AT; AT=Abound+Aunbound). The upper part of the Centrifree tube was discarded, and an aliquot (10 μL) from the bottom part of the tube was removed to determine the amount of unbound radioactivity (Aunbound) that passed through the membrane (molecular weight cutoff 30 kD). The radioactivity of each sample was measured using PerkinElmer Wizard2 2480 gamma-counter. Plasma protein binding was derived by the following equation: % unbound=Aunbound×100/AT.
As the PET tracer is delivered into the bloodstream, it can bind to albumin, α1-acid glycoprotein and lipoproteins. Plasma protein binding reduces the free drug in the bloodstream and inhibits BBB penetration to reach the brain target. (Ref 44) The PPB value was obtained with an ultrafiltration assay by using [^18F]15. […] These pharmacological properties along with other molecular properties such as MW, tPSA and HBO are in the range normally considered favorable for a PET ligand.

The target in a further data set is mGluR4 (Homo sapiens, UniProt Q14833). The data set can be described thus: GloSensor cAMP biosensor assay, mGluR4 PAM and agonist activity. The class given is cell-based. On the set-up: expressed in transfected cells. On the procedure:
Cell Culture. HEK-293 cells were maintained with complete Dulbecco's modified Eagle's medium (DMEM), which was composed of 10% fetal bovine serum (FBS), 2 mM L-glutamine, 100 units/mL penicillin G, 100 μg/mL streptomycin at 37° C. in the presence of 5% CO2. HEK-293 stable cell lines with tetracycline inducible expression of mGluR1, mGluR2, mGluR4, mGluR6 or mGluR8 were maintained with complete DMEM with Hygromycin B (100 μg/mL), Blasticidin (15 μg/mL) at 37° C. in the presence of 5% CO2.
cAMP assay. The Gi/o coupled receptors (mGluR2, mGluR3, mGluR4, mGluR6 and mGluR8) were tested using cAMP assay. Promega's split luciferase based GloSensor cAMP biosensor technology was used in determining Gi-GPCR mediated cAMP production in live cells. On the cells stably expressing mGluR2, mGluR3, mGluR4, mGluR6 or mGluR8, GloSensor cAMP DNA construct was transfected overnight. Cells were seeded into PLL coated 384-well white clear bottom cell culture plates with complete BME Buffer with Tetracycline (1 μg/mL) at a density of 20,000 cells for another 24 h. The cell medium was removed and then 20 μL of buffer was loaded. […] Luminescence was counted in a Trilux luminescence counter. Data were analyzed with Prizm 5.0 (GraphPad software).
Secondary assays—Dose-response assays. […] For each compound, the results from four replicates were averaged and then either EC50 or IC50 values were calculated by non-linear regression using the 4-parameter logistic equation. […]
In sum, the mGluR4 PAM activity was determined using Promega's split luciferase based GloSensor cAMP biosensor assay (refs. 41-42). mGluR4 is coupling to Gαi protein to inhibit adenylate cyclase, which converts ATP to cAMP, which plays an important role in many signal transduction pathways. […] The mGluR4 PAM activity of 15 was evaluated in presence of EC20 concentration of agonist (1 μM L-SOP) by measuring changes in intracellular cAMP concentration.

The nature of a further data set: solution stability. The class given is physicochemical. The method, then:
Three pH values, 5, 7.4 and 9.4 were selected to check the solution stability. Aqueous solutions with different pH values were established using the following buffers: sodium acetate-KCl—HCl buffer (20 mM, pH 5.0), phosphate buffer (20 mM, pH 7.4), and boric acid-KCl—NaOH buffer (20 mM, pH 9.4). 891 μL of each pH buffer was placed in different tubes. 9 μL (1 mM) of the sample stock (4, 13, 15 and Diltiazem) was transferred to a particular buffer tube and mixed just before the time 0 min. The mixture was vortexed and incubated at 37° C. After the incubation at the different time points (0, 15, 30, 60, and 120 min), aliquots of 50 μL samples were quenched with 100 μL of ice-cold acetonitrile with 25 μM internal reference, respectively, and analyzed by HPLC. The percentage of the remaining intact compound was calculated by (peak area at the specific time point)/(peak area at 0 min)×100. Every sample was assayed three times.

Where two headings read alike, the source gives them in different places.

mGluR4, sequence (Q14833 33-912): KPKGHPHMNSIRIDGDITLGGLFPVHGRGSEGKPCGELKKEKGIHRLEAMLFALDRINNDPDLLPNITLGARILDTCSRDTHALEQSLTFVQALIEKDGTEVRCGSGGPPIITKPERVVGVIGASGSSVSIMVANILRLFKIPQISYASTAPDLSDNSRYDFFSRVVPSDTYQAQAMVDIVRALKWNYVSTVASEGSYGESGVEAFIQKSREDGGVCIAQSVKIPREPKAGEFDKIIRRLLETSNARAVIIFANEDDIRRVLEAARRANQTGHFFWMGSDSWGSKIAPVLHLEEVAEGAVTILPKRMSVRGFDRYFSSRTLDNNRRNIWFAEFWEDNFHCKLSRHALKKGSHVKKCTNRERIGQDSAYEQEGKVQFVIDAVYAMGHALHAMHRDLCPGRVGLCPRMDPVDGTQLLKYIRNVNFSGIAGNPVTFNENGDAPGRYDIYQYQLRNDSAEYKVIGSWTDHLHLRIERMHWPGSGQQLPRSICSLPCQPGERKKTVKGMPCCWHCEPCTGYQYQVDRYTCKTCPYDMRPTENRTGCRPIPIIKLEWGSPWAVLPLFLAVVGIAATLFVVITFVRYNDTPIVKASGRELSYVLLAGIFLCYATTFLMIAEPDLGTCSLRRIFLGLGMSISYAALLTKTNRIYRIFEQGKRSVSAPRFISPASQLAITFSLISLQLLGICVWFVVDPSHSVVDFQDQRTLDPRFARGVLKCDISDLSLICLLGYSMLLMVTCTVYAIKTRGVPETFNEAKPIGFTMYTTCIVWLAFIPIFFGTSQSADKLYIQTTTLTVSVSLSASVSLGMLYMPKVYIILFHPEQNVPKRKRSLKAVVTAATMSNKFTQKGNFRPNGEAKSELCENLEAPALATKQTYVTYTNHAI

`[2H]C([2H])(F)Sc1cc(NC(=O)c2ccccn2)ccc1Cl` [Compound 15, N-(4-Chloro-3-((fluoromethyl-d2)thio)phenyl)picolinamide]: the “Plasma stability, remaining of the intact test compound” value in “plasma stability” (0 min) came out at 100.00 ± 1.88%; in “plasma stability” (15 min), 93.46 ± 1.96%; in the data set “plasma stability” (30 min), 104.21 ± 2.84%; in “plasma stability” (60 min), 94.54 ± 5.18%; in the data set “plasma stability” (120 min) it was 84.52 ± 10.16%. The “The plasma stability, The intact ± SEM at 120 min (%)” value in “plasma stability” (120 min) worked out at 84.5 ± 10.2%. Also, in data set [1], the “PPB (plasma protein binding)” value was determined as 93.1%. Besides, the EC50 at mGluR4 (agonist mode, cAMP assay, read-out: EC50, mGluR4 agonist activity) came out at 2750 nM; at mGluR4 (in presence of EC20 concentration of agonist (1 μM L-SOP), read-out: EC50, mGluR4 PAM activity), 324 nM. The “The solution stability, The intact ± SEM at 120 min (%)” value in the data set “solution stability” (pH = 5.0, 37° C.) came out at 87.1 ± 0.9%; in the data set “solution stability” (pH = 7.4, 37° C.) it was 88.3 ± 1.9%; in the data set “solution stability” (pH = 9.4, 37° C.), 84.3 ± 1.8%.

For orientation: EC50 means the midpoint of the concentration-response curve.

(Values after patent US20220118117A1, “MODULATORS OF METABOTROPIC GLUTAMATE RECEPTOR 4” (The General Hospital Corporation, priority 2019, published 2022).)
